Assay results: patent US20240124408A1 (Sanofi, priority 2020, published 2024)

What was measured:
Type in all cases: cell-based
[1] = target: T1, human TRPM8 (Homo sapiens, UniProt Q7Z2W7); assay: In vitro human TRPM8 fluorescence calcium flux assay (recombinant CHO cells, Fluo4-AM, FDSS6000); conditions: recombinant CHO cells expressing human TRPM8; menthol-related EC50, normalized to 100 μM menthol
T1 construct: expressed in transfected cells; host or cells: CHO (p658 mammalian expression vector)
In short: (§1)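 CHO cells stably expressing pig or human TRPM8, loaded with 2 μM Fluo4-AM in HBSS/20 mM HEPES/0.1% BSA/2.5 mM probenecid for 1 h at RT. Intracellular calcium read kinetically for 3 min after compound addition. EC50 from sixteen-point curves, normalized to 100 μM menthol maximal response.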

[2] = target: T2, pig TRPM8 (Sus scrofa, UniProt F1SM15); assay: In vitro pig TRPM8 fluorescence calcium flux assay (recombinant CHO cells, Fluo4-AM, FDSS6000); conditions: recombinant CHO cells expressing pig TRPM8; menthol-related EC50, normalized to 100 μM menthol
T2 construct: expressed in transfected cells; host or cells: CHO (pcDNA5/FRT/TO vector; hygromycin B and blasticidin selection)
In short: as §1

[3] = target: T1, human TRPM8; assay: In vitro human TRPM8 automated patch-clamp assay (SyncroPatch 384PE, CHO cells); conditions: CHO cells expressing human TRPM8, 28° C.
Description: (§2) In Vitro Pig and Human TRPM8 Automated Patch-Clamp Assays
(§3) Automated whole-cell recordings of compound effects were performed on the SyncroPatch 384PE (Nanion Technologies, Munich, Germany) incorporated into a Biomek FX pipetting robot (Beckman Coulter, Jersey City, NJ, USA) using the same engineered CHO cell lines expressing human or pig TRPM8 channels. Data acquisition and analysis were performed with the proprietary software PatchControl 384 and DataControl 384, respectively (Nanion Technologies, Munich, Germany). All recordings were carried out using planar borosilicate glass patch clamp chips in a 384-microtiter plate format with patch hole resistances of 2-4 MO. For recordings, standard intracellular solution was used containing (in mM): 130 KF, 4 NaCl, 1 MgCl2, 0.5 CaCl2, 10 HEPES and 10 EGTA/KOH (pH 7.2) and standard extracellular solution contained in mM: 150 NaCl, 4 KCl, 0.5 CaCl2, 1 MgCl2 and 10 HEPES (pH 7.3).
(§4) Prior to the electrophysiological measurements, cells were harvested using Accutase (GIBCO, Fisher Scientific) and resuspended in warmed extracellular solution. The cell suspension was kept in the dedicated cell reservoir at 28° C. at a 1 million/ml cell density and shaken at 500 rounds per min (rpm). Experiments were performed at 28° C. throughout. Cells were distributed in high resistance 4-holes-per-well Nanion chips where they were caught on the patch holes by application of a −80 mbar pressure. The cell membrane was ruptured to obtain the whole-cell configuration with a pressure pulse of −250 mbar for 2 seconds. Voltage protocols were constructed using PatchControl 384. The cells were held at a holding potential of −60 mV and TRPM8 currents were recorded using a ramp protocol from −80 to +80 mV every 5 seconds before and after compound addition. Resulting currents were recorded at both −80 and +80 mV and current kinetics were exported and analyzed. From each plate, control wells with 200 μM menthol were recorded to validate the assay. One concentration of compound was applied to each of the other wells. For each concentration, compound response was determined by subtracting the baseline current recorded before compound addition from the maximum peak elicited currents obtained after compound addition. Then, each compound response was normalized to control condition without compound and maximum current (Emax) obtained for each compound. Nanion DataControl 384 software plotted current response for each compound concentration and was able to calculate an EC50 value for each active compound.

[4] = target: T2, pig TRPM8; assay: In vitro pig TRPM8 automated patch-clamp assay (SyncroPatch 384PE, CHO cells); conditions: CHO cells expressing pig TRPM8, 28° C.
Description: as §2, §3, §4

T2 sequence (F1SM15 1-1104): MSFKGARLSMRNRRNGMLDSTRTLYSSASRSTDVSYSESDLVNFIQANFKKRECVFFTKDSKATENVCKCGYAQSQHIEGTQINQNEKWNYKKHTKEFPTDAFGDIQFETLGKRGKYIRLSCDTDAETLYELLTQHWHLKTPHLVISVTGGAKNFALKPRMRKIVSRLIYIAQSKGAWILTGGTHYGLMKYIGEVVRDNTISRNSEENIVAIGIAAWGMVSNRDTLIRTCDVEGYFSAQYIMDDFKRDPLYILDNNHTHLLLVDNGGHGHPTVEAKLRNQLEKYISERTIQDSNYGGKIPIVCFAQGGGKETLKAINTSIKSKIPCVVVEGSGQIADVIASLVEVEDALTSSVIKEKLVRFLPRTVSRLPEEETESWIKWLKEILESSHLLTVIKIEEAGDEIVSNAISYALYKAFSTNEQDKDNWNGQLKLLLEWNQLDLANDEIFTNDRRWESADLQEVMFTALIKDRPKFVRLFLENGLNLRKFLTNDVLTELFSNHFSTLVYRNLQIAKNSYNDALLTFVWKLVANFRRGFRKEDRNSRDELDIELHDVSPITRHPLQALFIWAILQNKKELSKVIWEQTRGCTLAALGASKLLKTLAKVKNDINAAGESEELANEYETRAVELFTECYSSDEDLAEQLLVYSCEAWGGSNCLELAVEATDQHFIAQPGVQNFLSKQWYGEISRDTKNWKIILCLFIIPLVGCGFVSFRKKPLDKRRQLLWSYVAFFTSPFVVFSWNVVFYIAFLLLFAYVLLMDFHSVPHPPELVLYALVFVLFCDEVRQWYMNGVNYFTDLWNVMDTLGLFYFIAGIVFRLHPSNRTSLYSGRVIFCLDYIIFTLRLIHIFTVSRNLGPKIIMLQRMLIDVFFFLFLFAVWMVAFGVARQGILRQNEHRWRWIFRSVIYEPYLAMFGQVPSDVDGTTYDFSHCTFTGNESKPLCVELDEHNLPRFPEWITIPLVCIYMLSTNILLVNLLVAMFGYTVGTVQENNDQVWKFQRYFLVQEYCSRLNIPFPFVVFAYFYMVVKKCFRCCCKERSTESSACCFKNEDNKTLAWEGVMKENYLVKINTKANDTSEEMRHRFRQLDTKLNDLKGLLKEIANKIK
T1 sequence (Q7Z2W7 whole entry): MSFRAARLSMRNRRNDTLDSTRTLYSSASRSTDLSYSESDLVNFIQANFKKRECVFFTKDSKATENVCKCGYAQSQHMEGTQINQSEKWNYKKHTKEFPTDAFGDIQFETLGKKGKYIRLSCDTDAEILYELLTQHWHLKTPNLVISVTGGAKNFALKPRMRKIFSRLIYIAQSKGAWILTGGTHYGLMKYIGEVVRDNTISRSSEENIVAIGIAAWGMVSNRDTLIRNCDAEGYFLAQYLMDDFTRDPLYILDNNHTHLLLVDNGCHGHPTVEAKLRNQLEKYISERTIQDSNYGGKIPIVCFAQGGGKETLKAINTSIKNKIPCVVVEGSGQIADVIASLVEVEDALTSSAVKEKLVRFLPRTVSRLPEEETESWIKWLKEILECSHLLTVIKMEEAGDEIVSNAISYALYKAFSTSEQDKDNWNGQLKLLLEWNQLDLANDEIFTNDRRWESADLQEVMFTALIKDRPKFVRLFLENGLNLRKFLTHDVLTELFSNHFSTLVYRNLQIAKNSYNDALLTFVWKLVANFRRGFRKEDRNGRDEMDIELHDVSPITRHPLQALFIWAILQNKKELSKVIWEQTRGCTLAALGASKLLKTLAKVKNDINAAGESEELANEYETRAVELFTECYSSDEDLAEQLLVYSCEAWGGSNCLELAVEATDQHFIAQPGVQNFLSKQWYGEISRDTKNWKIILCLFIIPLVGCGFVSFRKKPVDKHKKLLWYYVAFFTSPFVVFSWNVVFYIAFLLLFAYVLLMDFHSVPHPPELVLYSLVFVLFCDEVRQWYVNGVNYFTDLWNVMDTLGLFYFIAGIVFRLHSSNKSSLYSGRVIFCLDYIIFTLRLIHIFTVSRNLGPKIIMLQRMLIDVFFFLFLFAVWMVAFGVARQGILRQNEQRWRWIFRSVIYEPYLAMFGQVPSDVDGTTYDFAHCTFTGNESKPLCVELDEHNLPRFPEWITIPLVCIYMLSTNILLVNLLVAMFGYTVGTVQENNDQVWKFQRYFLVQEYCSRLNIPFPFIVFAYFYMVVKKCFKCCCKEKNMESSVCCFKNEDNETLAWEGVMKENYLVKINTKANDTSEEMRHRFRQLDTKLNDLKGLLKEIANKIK

Row | Structure (SMILES) | EC50 [1] [nM] | EC50 [2] [nM] | EC50 [3] [nM] | EC50 [4] [nM]
1 | CC(C)[C@@H]1CC[C@@H](C)C[C@@]1(O)C(=O)NCCc1ccncc1 [Example 119, (1S,2S,5R)-1-hydroxy-2-isopropyl-5-methyl-N-[2-(4-pyridyl)ethyl]cyclohexanecarboxamide] | 37.4 | 6.3 | 3200 | 7210
2 | CC(C)[C@@H]1CC[C@@H](C)C[C@@]1(O)C(=O)NCCc1cccc(OCC(O)CO)c1 (stereo partly drawn) [Example 10, (1S,2S,5R)—N-(3-(2,3-dihydroxypropoxy)phenethyl)-1-hydroxy-2-isopropyl-5-methylcyclohexane-1-carboxamide] | 21.4 | 9.7 | 4130 | 4800
3 | CC(C)[C@@H]1CC[C@@H](C)C[C@@]1(O)C(=O)NC[C@H](O)c1cccc(O)c1 [Example 41, (1S,2S,5R)-1-hydroxy-N-((2R)-hydroxy-2-(3-hydroxyphenyl)ethyl)-2-isopropyl-5-methylcyclohexane-1-carboxamide] | 195 | 74.5 | 1100 | 5110
4 | CC(C)[C@@H]1CC[C@@H](C)C[C@@]1(O)C(=O)NCC(=O)c1cccs1 [Example 149, (1S,2S,5R)-1-hydroxy-2-isopropyl-5-methyl-N-[2-oxo-2-(2-thienyl)ethyl]cyclohexanecarboxamide] | 6 | 2 | 2300 | 1560
5 | CC(C)[C@@H]1CC[C@@H](C)C[C@@]1(O)C(=O)NCCc1ccccc1OC[C@H](O)CO [Example 24, (1S,2S,5R)—N-(2-((R)-2,3-dihydroxypropoxy)phenethyl)-1-hydroxy-2-isopropyl-5-methylcyclohexane-1-carboxamide] | 7.8 | 13.4 | 2580 | 1700
6 | CC(C)[C@@H]1CC[C@@H](C)C[C@@]1(O)C(=O)NCCc1ccc(CO)cc1 [Example 109, (1S,2S,5R)-1-hydroxy-N-(4-(hydroxymethyl)phenethyl)-2-isopropyl-5-methylcyclohexane-1-carboxamide] | 22.4 | 11.9 | 2200 | 1770
7 | CC(C)[C@@H]1CC[C@@H](C)C[C@@]1(O)C(=O)NCC(=O)c1ccccc1 [Example 2, (1S,2S,5R)-1-hydroxy-2-isopropyl-5-methyl-N-(2-oxo-2-phenylethyl)cyclohexane-1-carboxamide] | 1.2 | 0.7 | 450 | 596
8 | CC(C)[C@@H]1CC[C@@H](C)C[C@@]1(O)C(=O)NCC(O)c1ccccc1Cl (stereo partly drawn) [Example 160, (1S,2S,5R)-N-[2-(2-chlorophenyl)-2-hydroxy-ethyl]-1-hydroxy-2-isopropyl-5-methyl-cyclohexanecarboxamide] | 16.1 | 16.4 | 620 | 480
9 | CC(C)[C@@H]1CC[C@@H](C)C[C@@]1(O)C(=O)NCC(=O)Nc1ccc(O)cc1 [Example 88, (1S,2S,5R)-1-hydroxy-N-(2-((4-hydroxyphenyl)amino)-2-oxoethyl)-2-isopropyl-5-methylcyclohexane-1-carboxamide] | 56.7 | 20 | 1500 | 1090
10 | CC(C)[C@@H]1CC[C@@H](C)C[C@@]1(O)C(=O)NCC(O)c1cccc(O)c1 (stereo partly drawn) [Example 32, (1S,2S,5R)-1-hydroxy-N-(2-hydroxy-2-(3-hydroxyphenyl)ethyl)-2-isopropyl-5-methylcyclohexane-1-carboxamide] | 3 | 3 | 1230 | 507
11 | COC(=O)COc1ccccc1C(O)CNC(=O)[C@]1(O)C[C@H](C)CC[C@H]1C(C)C (stereo partly drawn) [Example 36, methyl 2-(2-(1-hydroxy-2-((1S,2S,5R)-1-hydroxy-2-isopropyl-5-methylcyclohexane-1-carboxamido)ethyl)phenoxy)acetate] | 47 | 36 | 1880 | 3810
12 | COc1ccccc1CCNC(=O)[C@]1(O)C[C@H](C)CC[C@H]1C(C)C [Example 155, (1S,2S,5R)-1-hydroxy-2-isopropyl-N-[2-(2-methoxyphenyl)ethyl]-5-methyl-cyclohexanecarboxamide] | 23.8 | 17.4 | 1200 | 3500
13 | CC(C)[C@@H]1CC[C@@H](C)C[C@@]1(O)C(=O)NCCc1ccccc1O [Example 116, (1S,2S,5R)-1-hydroxy-N-[2-(2-hydroxyphenyl)ethyl]-2-isopropyl-5-methyl-cyclohexanecarboxamide] | 3.3 | 2.5 | 1300 | 504
14 | COC(=O)[C@H](N)COc1cccc(CCNC(=O)[C@]2(O)C[C@H](C)CC[C@H]2C(C)C)c1 [Example 26, methyl O-(3-(2-((1S,2S,5R)-1-hydroxy-2-isopropyl-5-methylcyclohexane-1-carboxamido)ethyl)phenyl)-D-serinate] | 3.7 | 5.5 | 1800 | 1100
15 | CC(C)[C@@H]1CC[C@@H](C)C[C@@]1(O)C(=O)N[C@H](CO)Cc1ccccc1 [Example 146, (1S,2S,5R)-N-[(1S)-1-benzyl-2-hydroxy-ethyl]-1-hydroxy-2-isopropyl-5-methyl-cyclohexanecarboxamide] | 16 | 16 | 1200 | 2390
16 | CC(C)[C@@H]1CC[C@@H](C)C[C@@]1(O)C(=O)NCC(NC(=O)[C@H](C)N)c1ccccc1 (single isomer, unassigned) [Example 182] | 3.7 | 3.8 | 66 | 52
17 | COC(=O)[C@@H](N)COc1cccc(CCNC(=O)[C@]2(O)C[C@H](C)CC[C@H]2C(C)C)c1 [Example 27, methyl O-(3-(2-((1S,2S,5R)-1-hydroxy-2-isopropyl-5-methylcyclohexane-1-carboxamido)ethyl)phenyl)-L-serinate] | 3.1 | 10.3 | 2400 | 4000
18 | COc1ccc(CCNC(=O)[C@]2(O)C[C@H](C)CC[C@H]2C(C)C)cc1OC [Example 113, (1S,2S,5R)-N-[2-(3,4-dimethoxyphenyl)ethyl]-1-hydroxy-2-isopropyl-5-methyl-cyclohexanecarboxamide] | 99.4 | 93.5 | 1400 | 9640
19 | CC(C)[C@@H]1CC[C@@H](C)C[C@@]1(O)C(=O)NCCc1cccc2c1OCC2 [Example 159, (1S,2S,5R)-N-[2-(2,3-dihydrobenzofuran-7-yl)ethyl]-1-hydroxy-2-isopropyl-5-methyl-cyclohexanecarboxamide] | 9.2 | 4.9 | 1000 | 1030
20 | CC(C)[C@@H]1CC[C@@H](C)C[C@@]1(O)C(=O)NCC1(O)CCOc2ccccc21 (stereo partly drawn) [Example 96, (1S,2S,5R)-1-hydroxy-N-((4-hydroxychroman-4-yl)methyl)-2-isopropyl-5-methylcyclohexane-1-carboxamide] | 10.3 | 25.2 | 630 | 1100
21 | CC(C)[C@@H]1CC[C@@H](C)C[C@@]1(O)C(=O)NCC(CO)c1ccccc1 (single isomer, unassigned) [Example 89] | 90.3 | 47.6 | 3300 | 3250
22 | CC(C)[C@@H]1CC[C@@H](C)C[C@@]1(O)C(=O)NCC(CO)c1ccccc1 (stereo partly drawn) [Example 70, (1S,2S,5R)-1-hydroxy-N-(3-hydroxy-2-phenylpropyl)-2-isopropyl-5-methylcyclohexane-1-carboxamide] | 9 | 8 | 3990 | 3740
23 | CC(C)[C@@H]1CC[C@@H](C)C[C@@]1(O)C(=O)NCC(CO)c1ccccc1 (single isomer, unassigned) [Example 90] | 41.8 | 14.4 | 3000 | 2000
